Activity calls are given as the source filed them. The rule behind the calls is not given here.

Experiment [1] is described as follows: inhibitors of TNFa-induced VCAM1 expression, confirmation, imaging, TNFa stimulus, retest and dose response (AID 1013).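 For cell count: compound on cells 1 h before TNFa then 24 h more.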 Particulars: TNFa-stimulated cells, VCAM1 expression imaging; for cell count: at 10 µM, stronger effect = lower value; for inhibition: at 2 µM, stronger effect = higher value.
Experiment [2] concerns TNFa-stimulated cells, VCAM1 expression imaging. The experiment is described as above.

The term IC50 denotes the concentration that gives 50% inhibition. In turn, `Oc1ccc(Nc2nc3ccccc3nc2Nc2ccc(O)cc2)cc1` came in with a cell count in experiment [1] of 1.62%. Moreover, the IC50 in experiment [2] is 3.26 µM. The matching figures for `CCN1/C(=C\C=C\C2=[N+](CC)c3ccccc3C2(C)C)C(C)(C)c2ccccc21`: 60.4% and 0.41 µM.

As to `CCOC(=O)Nc1nc(-c2ccccc2)c(C(=O)c2ccccc2)s1`, in experiment [1], the cell count is 61.6%. Also, the IC50 in experiment [2] is > 10 µM (inactive). Taken in the same sequence, the figures for `Cc1cccc(NC(=O)CSc2nc3ccc(NC(=O)CSc4nnnn4-c4ccccc4)cc3s2)c1C` were 107% and > 10 µM (inactive). The compound `COc1ccc(NC(=O)/C(Cl)=C(/Cl)S(=O)(=O)Cc2ccc(C)cc2)cn1` showed a cell count in experiment [1] of 22.9%. Also, the IC50 in experiment [2] is 3.25 µM.

Regarding `CCOC(=O)c1[nH]c(C)c(C(=O)c2cc(F)ccc2F)c1C`, the cell count in experiment [1] came to 70.7%. Also, in experiment [2], the IC50 is 0.6 µM.

The compound `O=C(COC(=O)c1ccccc1C(=O)c1ccc(Cl)c([N+](=O)[O-])c1)NC1CCCCCC1` yielded a cell count in experiment [1] of 91%. In addition, the IC50 in experiment [2] was > 10 µM (inactive). Taken in the same sequence, the figures for `CC[C@@H](C)[C@H](NC(=O)OC(C)(C)C)c1nnc(S(=O)(=O)Cc2cc(C)ccc2C)o1` were 117% and > 10 µM (inactive). The matching figures for `CCSc1nc2ccccc2n1C(=O)/C=C\c1ccc(OC)c(OC)c1`: 98.3% and > 10 µM (inactive).

`Cc1cc(=O)oc2cc(OCC3CC(c4ccccc4Cl)=NO3)ccc12` (configuration not stated) showed a cell count in experiment [1] of 106%. Further, the IC50 in experiment [2] was > 10 µM (inactive). The compound `COc1cc(C(=O)N/N=C/c2ccsc2C)cc(OC)c1OC` came in with a cell count in experiment [1] of 48.6%. The IC50 in experiment [2] is > 10 µM (inactive). The matching figures for `OCCN=C1CCCc2c1[nH]c1ccc(Br)cc21`: 76.3% and 0.15 µM. The matching figures for `COc1ccc(C2=Nn3c(nnc3-c3ccc(OC)cc3)SC2)cc1`: 114% and > 10 µM (inactive). The matching figures for `O=S(=O)(c1ccc2c(c1)C(=NO)c1cc(S(=O)(=O)N3CCCCC3)ccc1-2)N1CCCCC1`: 118% and > 10 µM (inactive). Turning to `COc1ccc(-c2cc3ccccc3oc2=O)cc1NC(=O)c1ccc([N+](=O)[O-])o1`, in experiment [1], the cell count is 107%. Further, the IC50 in experiment [2] was > 10 µM (inactive). The matching figures for `O=[N+]([O-])c1ccc(Sc2nc3ccccc3o2)c([N+](=O)[O-])c1`: 106% and > 10 µM (inactive).

In turn, `Cc1ccc2[nH]c3c(c2c1)CCC3=O` displayed a cell count in experiment [1] of 72%. Further, the IC50 in experiment [2] was 1 µM. The matching figures for `CN1Cc2cc(C(=O)c3cc(Cl)cc(CSc4ncccn4)c3O)cnc2NC1=O`: 85.8% and > 10 µM (inactive).

Turning to `Cc1cc(C)c(S(=O)(=O)Nc2ccc3c4c(cccc24)CC3)c(C)c1`, the cell count in experiment [1] came to 106%. Moreover, the IC50 in experiment [2] was > 10 µM (inactive).

Take `O=C(c1ccc(Br)cc1)c1cc([N+](=O)[O-])ccc1N1CCCCC1`: in experiment [1], the cell count came to 102%. In addition, the IC50 in experiment [2] was > 10 µM (inactive). Taken in the same sequence, the figures for `COc1ccccc1-c1cc(C(F)(F)F)nc(S(=O)(=O)CCCC(=O)N2CCCCC2C)n1` (configuration not stated) were 88.8% and > 10 µM (inactive). The matching figures for `COc1ccc(C(=O)c2ccc(N(C)C)cc2)c2ccccc12`: 93.2% and > 10 µM (inactive). Taken in the same sequence, the figures for `Cc1ccccc1NC1=C/C(=N\S(=O)(=O)c2cccs2)c2ccccc2C1=O` were 99.8% and > 10 µM (inactive).

`O=C1C(=O)c2ccc(-c3ccccc3)cc2-c2ccccc21` returned a cell count in experiment [1] of 109%. Moreover, the IC50 in experiment [2] is > 10 µM (inactive). The matching figures for `O=C(c1ccco1)N1CCN(C(=O)N2c3ccccc3Sc3ccccc32)CC1`: 40.3% and 3.52 µM. The matching figures for `COc1cc(C2C(C#N)=C(N)Oc3cc(N(C)C)ccc32)cc2c1OCO2` (configuration not stated): 47.6% and 5.11 µM. Taken in the same sequence, the figures for `Cc1c(C(=O)OCC(C)C)[nH]c2c1C(=O)CC(c1ccco1)C2` (configuration not stated) were 48.4% and > 10 µM (inactive). With `N#CC1=C(N)Oc2c(ccc3ccccc23)C1c1cccs1` (configuration not stated), the cell count in experiment [1] was 69.2%. Also, the IC50 in experiment [2] is > 10 µM (inactive). Taken in the same sequence, the figures for `CC(C)(C)C(=O)/C(=C\c1cccc([N+](=O)[O-])c1)n1cncn1` were 1.73% and 1.09 µM. Taken in the same sequence, the figures for `CC(=O)c1ccc(Oc2cc(C)nc(-n3nc(C)cc3C)n2)cc1` were 46.9% and 3.83 µM. Taken in the same sequence, the figures for `C=CCn1c(SCc2c(C)noc2C)nc2ccccc2c1=O` were 43.3% and > 10 µM (inactive).

`COc1ccc(C2=Nn3c(nnc3-c3ccccc3OC)SC2)cc1OC` gave a cell count in experiment [1] of 46.9%. Also, in experiment [2], the IC50 is 0.557 µM. The matching figures for `O=[N+]([O-])c1ccc(O)c(/C=N/Nc2ccc(Cl)nn2)c1`: 106% and > 10 µM (inactive). Compound `Cc1ccc(C(=O)c2cc([N+](=O)[O-])ccc2N2CCOCC2)c(C)c1` came in with a cell count in experiment [1] of 41.4%. In experiment [2], the IC50 is 2.86 µM.

`CCOc1ccc(S(=O)(=O)Nc2cc(OC)ccc2OC)cc1` yielded a cell count in experiment [1] of 45.4%. Moreover, the IC50 in experiment [2] is 1.78 µM. Taken in the same sequence, the figures for `O=C(CS(=O)c1ccc(C(F)(F)F)cc1[N+](=O)[O-])Oc1ccc(Cl)cc1` (configuration not stated) were 111% and > 10 µM (inactive). Turning to `Cc1ccc(C(=O)OCn2ncc(Cl)c(Cl)c2=O)cc1`, the IC50 in experiment [2] is 2.31 µM.

The inhibition is the drop in the measured response relative to a control, in per cent. Regarding `COc1cccc(C(=O)COc2cccc(NC(=O)c3cccc([N+](=O)[O-])c3)c2)c1`, the inhibition in experiment [1] was 1.6% (inactive). The same measure, in the same setting: under `O=C(CS(=O)(=O)c1cn(Cc2cccc(F)c2)c2ccccc12)N1CCCCC1` stands -4.4% (inactive); under `COc1ccccc1C(=O)Nc1ccc2c(c1)nc(CN1CCN(C(C)=O)CC1)n2C`, 0.2% (inactive).

Consider `CCOc1cc(NC(=O)c2ccco2)c(OCC)cc1NC(=O)CCC(=O)NCc1cccnc1`, for which the inhibition in experiment [1] is 3.7% (inactive). For `CCN(CC)C(=O)CN(c1ccc(Cl)cc1)S(=O)(=O)c1ccccc1`, in experiment [1], the inhibition is -3.1% (inactive).

As to `COc1ccc(-c2c/c(=N\c3nc(-c4ccccc4)c(C)s3)c3ccccc3o2)cc1O`, in experiment [1], the inhibition was 34.3% (inactive) and the cell count was determined as 98%. On to `C=CCn1c(SCC(=O)Nc2ccc(C(=O)OCC)cc2)nnc1-c1sc(N)nc1C`, for which the inhibition in experiment [1] was 9.5% (inactive). For the compound `Cc1ccc(S(=O)(=O)Nc2cc(C(=O)NCCN3CCCC3)ccc2N2CCCCC2)cc1`, the inhibition in experiment [1] is -2.2% (inactive).

As to `CCn1c(SCC(=O)Nc2cc(C)on2)nnc1-c1ccccc1`, in experiment [1], the inhibition was -7.4% (inactive). The same measure, in the same setting: the value for `COC(=O)c1cccc(S(=O)(=O)N(Cc2ccco2)Cc2cc3ccc(OC)cc3[nH]c2=O)c1` was -3.6% (inactive); that for `CC(=O)Nc1ccc(NC2(C)C(=O)c3ccccc3C2=O)cc1` was -3.5% (inactive); that for `CCC(=O)Nc1cccc(C(=O)/C=C/c2cc(Br)ccc2OC)c1` was 10% (inactive).

In the case of `COc1cc(NC(=O)CN2C(=O)NC(C)(CC(C)C)C2=O)cc(OC)c1` (configuration not stated), the inhibition in experiment [1] was 11.6% (inactive). The same measure, in the same setting: the value for `O=[N+]([O-])c1cnccc1Nc1ccc(F)cc1` was 15.4% (inactive); that for `O=C(Cn1ncc2c(=O)oc3ccccc3c21)NCCC1=CCCCC1` was -1.9% (inactive). Consider `O=S(=O)(c1cccc(-n2cnnn2)c1)N1CCOCC1`, for which the inhibition in experiment [1] was -4.6% (inactive). Same read-out and setting: the value for `CCOC(=O)Cc1csc(NC(=O)COc2ccc(N(C)S(=O)(=O)c3ccc(C)cc3)cc2)n1` was -1.3% (inactive). On the same count and under the same terms, the value for `Cc1cc(C)n(-c2nc(-c3cccc(Cl)c3)cs2)n1` was 2.2% (inactive).

With `CCCCCCCCCCn1c2c(c(=N)c3c1CCC3)CCC2`, the IC50 in experiment [2] was 0.55 µM. With `COc1ccc(OC)c(C2CC(=O)c3c([nH]c(C(=O)OC(C)C)c3C)C2)c1` (configuration not stated), the inhibition in experiment [1] was 35.5% (inactive). The same measure, in the same setting: the value for `C/C(=N\Nc1nc2c(s1)CCCC2)c1ccccc1` was 3.8% (inactive); that for `Cc1nc(NC(C)C)c2oc3ccccc3c2n1` was 18.8% (inactive); that for `CCOC(=O)c1cnn(-c2nc3c(C)cccc3s2)c1C` was 11% (inactive).

As for `CCOC(=O)N1CCN(C(=O)c2ccc3c(c2)NC(=O)C(N2CCOCC2)S3)CC1` (configuration not stated), the inhibition in experiment [1] is 2.1% (inactive). On the same count and under the same terms, under `CCOC(=O)c1cnc(-n2nc(C)cc2C)nc1N1CCOCC1` stands 0.6% (inactive); under `COc1cc2c3c(c1OC)-c1cc(O)ccc1CC3NCC2` (configuration not stated), -7.7% (inactive). Still for that read-out and setting: the value for `O=C(NC(NC1CCS(=O)(=O)C1)C(=O)c1cccs1)c1ccccc1` (configuration not stated) was 9.9% (inactive).

In the case of `COc1ccc(/C=N/NC(=O)c2ccccc2Cl)cc1CSc1nc2ccccc2s1`, in experiment [1], the inhibition is 13.7% (inactive).

As to `NC1=CC(=O)c2cccc3cccc1c23`, in experiment [1], the inhibition is 6.1% (inactive).

For the compound `O=C1CC(c2cc(Br)ccc2F)c2cc3c(cc2N1)CCC3` (configuration not stated), the inhibition in experiment [1] was 24.3% (inactive). On the same count and under the same terms, under `O=C(CC(c1ccccc1)c1ccccc1)NCC1CCCO1` (configuration not stated) stands -7.2% (inactive). As to `O=C(/C(=C/c1ccc(Cl)cc1)c1nc2ccccc2[nH]1)c1cccs1`, in experiment [1], the inhibition was 32.1% (inactive) and the cell count came out at 83.7%. For `CCOc1ccc2ccccc2c1/C=N/n1cncn1`, the inhibition in experiment [1] is 2.4% (inactive). For `CC(=NCCCO)c1c(O)n(Cc2ccccc2)c(=O)[nH]c1=O`, the inhibition in experiment [1] was -13.3% (inactive).

`OCCN=C(c1ccccc1)C12CN3CN(CN(C3)C1)C2`: in experiment [1], the inhibition was -1.2% (inactive). As for `O=S(=O)(c1cccs1)N1CCN(CC(O)COc2cccc(Br)c2)CC1` (configuration not stated), the inhibition in experiment [1] is 4.8% (inactive). With `Cc1cc(NC(=O)C2C3C=CC(C3)C2C(=O)O)no1` (configuration not stated), the inhibition in experiment [1] was -1.8% (inactive).

Values taken from PubChem BioAssay AID1013 (Columbia University Molecular Screening Center, 2008).
